From publication PMC6857856, “Characterization of two thermophilic cellulases from Talaromyces leycettanus JCM12802 and their synergistic action on cellulose hydrolysis” (PLoS ONE, 2019)

Molecular target: T1, TlCel5A (Evansstolkia leycettana, UniProt A0A3G5ECP2)
T1 construct: mature protein, 18-residue signal peptide removed (precursor 409 residues); catalytic domain, linker, C-terminal CBM; pPIC9, secreted from Pichia pastoris GS115, purified
Experiment: HPAEC analysis of hydrolysis products
Type: biochemical
Settings: 60 °C; 200 μg substrate in 1 mL, 0.05 U enzyme

T1 sequence (A0A3G5ECP2 19-409): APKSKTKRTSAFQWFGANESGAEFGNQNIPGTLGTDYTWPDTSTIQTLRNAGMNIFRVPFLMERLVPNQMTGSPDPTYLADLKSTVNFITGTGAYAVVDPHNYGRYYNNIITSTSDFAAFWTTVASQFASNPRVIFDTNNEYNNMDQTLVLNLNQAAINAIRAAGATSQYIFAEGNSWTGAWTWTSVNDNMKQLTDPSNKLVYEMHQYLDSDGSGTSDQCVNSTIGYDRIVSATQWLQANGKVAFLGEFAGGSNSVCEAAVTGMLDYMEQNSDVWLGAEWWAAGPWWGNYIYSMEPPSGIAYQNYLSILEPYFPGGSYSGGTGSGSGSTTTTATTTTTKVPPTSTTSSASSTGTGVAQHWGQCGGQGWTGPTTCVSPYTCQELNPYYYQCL

## OC[C@H]1O[C@@H](O[C@H]2[C@H](O)[C@@H](O)[C@H](O[C@H]3[C@H](O)[C@@H](O)[C@H](O[C@H]4[C@H](O)[C@@H](O)[C@H](O[C@H]5[C@H](O)[C@@H](O)[C@H](O[C@H]6[C@H](O)[C@@H](O)C(O)O[C@@H]6CO)O[C@@H]5CO)O[C@@H]4CO)O[C@@H]3CO)O[C@@H]2CO)[C@H](O)[C@@H](O)[C@@H]1O (some centres unmarked) [cellohexaose]
  HPAEC analysis of hydrolysis products: cellohexaose into cellobiose, cellotriose, cellotetraose and cellopentaose

## OC[C@H]1O[C@@H](O[C@H]2[C@H](O)[C@@H](O)[C@H](O[C@H]3[C@H](O)[C@@H](O)[C@H](O[C@H]4[C@H](O)[C@@H](O)[C@H](O[C@H]5[C@H](O)[C@@H](O)C(O)O[C@@H]5CO)O[C@@H]4CO)O[C@@H]3CO)O[C@@H]2CO)[C@H](O)[C@@H](O)[C@@H]1O (some centres unmarked) [cellopentaose]
  HPAEC analysis of hydrolysis products: cleaved cellopentaose into mainly cellobiose and cellotriose and low amounts of cellotetraose
